# From patent US9527847B2, “Treatment of lupus, fibrotic conditions, and inflammatory myopathies and other disorders using PI3 kinase inhibitors” (INFINITY PHARMACEUTICALS, INC., priority 2012, dated 2016)
# What was measured:
# NZBWF1/J mice = assay: Murine NZB/W F1 lupus model; assay type: in vivo, mouse; settings: vs vehicle; for Glomerulonephritis score reduction: kidney histopathology; for Plasma anti-dsDNA IgG levels: days 49, 98, 140 (age 30, 37, 43 wk)
# From the text: Female NZBWF1/J mice (n=60) that were 8 weeks old on arrival and weighed approximately 35-51 grams (mean 42 g) at enrollment (mouse age approx. 23 weeks) were obtained from The Jackson Laboratory, Bar Harbor, Me. (stock number 100008). Animals were identified by a distinct number of ink marks at the base of the tail delineating animal number. After enrollment, all cages were labeled with protocol number, group number, and animal numbers.
# Mice were terminated at age 43 weeks (day 140).
# All dose solutions were prepared to deliver in 10 ml/kg (0.3 ml/30 g mouse).
# Body weights were measured and recorded prior to study initiation for randomization, on the first day of dosing prior to dosing, and weekly throughout the study. Body weights were also recorded at scheduled termination points and as needed if test subjects appeared to decrease in weight by visual inspection. The animals were observed daily for significant clinical signs, morbidity and mortality.
# Urine from each animal was tested weekly (beginning at mouse age 23 weeks) for proteinuria using Clinitech Multistick test strips (Bayer).
# At necropsy, animals were anesthetized with isoflorane and bled via cardiac puncture for serum (for clinical chemistry analysis) and plasma (for Anti-dsDNA ELISA and PK). Terminal urine was collected and assessed. Spleens and kidneys (paired) were collected, weighed, and placed in 10% NBF. Serum obtained at necropsy was sent to Antech Diagnostics for analysis. Terminal plasma samples were split with half being used for Anti-dsDNA ELISA and the other half being shipped to the sponsor.
# Anti-dsDNA IgG analysis was performed on days 0, 49, 98, and 140 (mouse age 23, 30, 37, and 43 weeks). Anti-dsDNA IgG levels were determined using an Anti-dsDNA IgG ELISA Kit (Alpha Diagnostic, kit #5120, lot #90903K4) following manufacturer's instructions.
# Blood samples for clinical chemistry evaluation were collected at termination via cardiac puncture from Isoflurane anesthetized animals into serum separator microtainer tubes. Serum was sent to Antech Diagnostics for analysis.
# The following parameters were measured: Albumin (ALB), Albumin: Globulin ratio (A/G), Alkaline phosphatase (ALK), Alanine aminotransferase (ALT), Aspartate aminotransferase (AST), Calcium (CA), Magnesium (Mg), Phosphorous (P), Globulin (GLOB), Electrolytes (Sodium (Na), Potassium (K), Chloride (Cl)), Gamma glutamyltransferase (GGT), Total bilirubin (TBILI), Amylase (AMY), Lipase (LIP), Osmolality, Triglycerides (TRIG), Total cholesterol (CHOL), Urea nitrogen (BUN), Creatinine (CREAT), Glucose (GLU), Total protein (TP), and Creatinine kinase (CPK).
# Histopathologic evaluation was performed on kidneys. Kidneys from all surviving animals were examined microscopically by a board certified veterinary pathologist and observations were entered into a computer-assisted data retrieval system. Kidney sections were stained with Masson's Trichrome, or Hematoxylin and Eosin. To maintain blinding of the analysis, slides were labeled with the animal number with no reference to treatment group.
# Kidneys were scored according to the following system (developed by Chan O, Madaio M P, Shlomchik M J. The roles of B cells in MRL/lpr murine lupus. Annals New York Academy of Sciences, 1997; 815:75-82), modified to suit the lesion severity.
# • 0=Normal. • 1=Focal or multifocal, minimal to mild, early proliferative. • 2=Multifocal mild to moderate or mild diffuse proliferative. • 3=Diffuse moderate proliferative with or without multifocal severe areas. • 4=Marked diffuse proliferative, with crescents/sclerosis, multifocal protein casts present. • 5=Severe diffuse proliferative, with crescents/sclerosis, diffuse protein casts present. […]
# R848 induced cytokines = assay: R848 induced cytokine production in PBMCs; assay type: cell-based, human
# Method: (§1) These experiments were conducted using PBMCs.
# LPS induced cytokines = assay: LPS induced cytokine production in PBMCs; assay type: cell-based, human
# Method: as §1
# PI3K-δ = PI3K-δ (Homo sapiens, UniProt O00329); assay: One exemplary assay, PI3K-δ activity; assay type: biochemical; settings: overall, several assays
# [1] = tested on: Human B-cell proliferation; assay: Human B-cell proliferation; assay type: cell-based
# B cell proliferation = B cell proliferation EC50 (Table 3); assay type: cell-based; settings: in vitro
# [2] = tested on: PI3K-δ specific basophil activation; assay: Anti-fCER1 BAT (delta), basophil activation in human whole blood; assay type: cell-based; settings: Table 5
# [3] = serum at termination, Compound 292 (1, 5, 10 mg/kg), Dex 2 mg/kg
# Sequence of PI3K-δ (O00329 whole entry, species assumed): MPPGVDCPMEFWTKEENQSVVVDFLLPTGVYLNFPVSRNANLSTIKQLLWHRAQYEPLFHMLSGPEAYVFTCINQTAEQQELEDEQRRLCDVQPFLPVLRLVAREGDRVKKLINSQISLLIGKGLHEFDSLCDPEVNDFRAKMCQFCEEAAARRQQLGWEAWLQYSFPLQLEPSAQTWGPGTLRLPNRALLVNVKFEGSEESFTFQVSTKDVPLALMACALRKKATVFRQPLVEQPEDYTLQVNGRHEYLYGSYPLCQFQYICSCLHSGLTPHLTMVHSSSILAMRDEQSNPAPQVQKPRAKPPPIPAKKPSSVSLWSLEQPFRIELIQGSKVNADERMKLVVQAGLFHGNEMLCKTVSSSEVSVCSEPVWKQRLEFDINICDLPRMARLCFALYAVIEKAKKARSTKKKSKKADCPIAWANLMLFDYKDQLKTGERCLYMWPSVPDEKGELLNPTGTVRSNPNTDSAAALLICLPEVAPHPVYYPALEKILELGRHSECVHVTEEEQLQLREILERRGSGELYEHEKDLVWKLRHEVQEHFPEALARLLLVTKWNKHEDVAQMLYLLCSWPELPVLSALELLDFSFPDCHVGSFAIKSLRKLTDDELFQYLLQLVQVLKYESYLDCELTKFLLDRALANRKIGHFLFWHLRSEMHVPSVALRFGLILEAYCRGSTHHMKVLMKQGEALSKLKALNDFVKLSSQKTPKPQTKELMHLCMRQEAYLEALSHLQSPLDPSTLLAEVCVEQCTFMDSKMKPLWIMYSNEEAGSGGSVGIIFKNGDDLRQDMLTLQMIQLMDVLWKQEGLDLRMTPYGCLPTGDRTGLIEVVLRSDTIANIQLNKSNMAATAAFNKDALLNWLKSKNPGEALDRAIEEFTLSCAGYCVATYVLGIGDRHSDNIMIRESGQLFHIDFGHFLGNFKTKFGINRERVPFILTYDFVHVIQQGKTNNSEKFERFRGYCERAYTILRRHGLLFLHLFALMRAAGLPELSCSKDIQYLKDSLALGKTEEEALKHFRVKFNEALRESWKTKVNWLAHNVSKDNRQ
# Sequence of PI3K-δ (P27986 whole entry partner, species assumed): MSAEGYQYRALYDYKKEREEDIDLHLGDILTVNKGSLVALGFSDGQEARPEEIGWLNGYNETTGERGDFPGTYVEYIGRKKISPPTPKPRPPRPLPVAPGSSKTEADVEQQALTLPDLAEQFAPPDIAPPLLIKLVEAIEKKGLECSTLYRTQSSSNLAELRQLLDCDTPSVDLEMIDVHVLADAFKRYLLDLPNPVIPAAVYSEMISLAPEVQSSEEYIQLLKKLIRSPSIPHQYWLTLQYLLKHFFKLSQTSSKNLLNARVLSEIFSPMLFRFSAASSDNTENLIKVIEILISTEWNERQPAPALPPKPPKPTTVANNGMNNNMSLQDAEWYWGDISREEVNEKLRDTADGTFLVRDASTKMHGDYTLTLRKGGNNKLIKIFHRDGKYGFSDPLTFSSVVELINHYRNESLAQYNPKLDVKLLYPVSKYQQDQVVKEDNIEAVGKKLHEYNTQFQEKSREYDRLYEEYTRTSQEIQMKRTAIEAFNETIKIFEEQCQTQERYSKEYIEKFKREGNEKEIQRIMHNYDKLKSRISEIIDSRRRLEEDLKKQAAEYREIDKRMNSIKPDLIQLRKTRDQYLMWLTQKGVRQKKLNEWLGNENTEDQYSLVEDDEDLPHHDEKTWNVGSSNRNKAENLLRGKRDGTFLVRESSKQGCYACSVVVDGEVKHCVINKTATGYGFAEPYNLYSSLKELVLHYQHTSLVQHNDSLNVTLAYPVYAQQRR
compound,measurement,setting,value
C[C@H](Nc1ncnc2[nH]cnc12)c1cc2cccc(Cl)c2c(=O)n1-c1ccccc1 [Compound 292],Glomerulonephritis score reduction,NZBWF1/J mice; 1 mg/kg PO QD,68%
same,Urine protein levels,"NZBWF1/J mice; 1 mg/kg PO QD, p<0.05 at mouse age 43 wk",significantly reduced
same,Perivascular inflammation score reduction,NZBWF1/J mice; 1 mg/kg PO QD,79%
same,Protein cast severity reduction,NZBWF1/J mice; 1 mg/kg PO QD,100%
same,Spleen weight reduction,NZBWF1/J mice; 1 mg/kg PO QD,39%
same,Summed histopathology scores reduction,NZBWF1/J mice; 1 mg/kg PO QD,67%
same,Plasma anti-dsDNA IgG levels,NZBWF1/J mice; 5 mg/kg PO QD,significantly reduced
same,Glomerulonephritis score reduction,NZBWF1/J mice; 5 mg/kg PO QD,89%
same,Urine protein levels,"NZBWF1/J mice; 5 mg/kg PO QD, p<0.05 at mouse age 43 wk",significantly reduced
same,Interstitial nephritis score reduction,NZBWF1/J mice; 5 mg/kg PO QD,54%
same,Perivascular inflammation score reduction,NZBWF1/J mice; 5 mg/kg PO QD,90%
same,Protein cast severity reduction,NZBWF1/J mice; 5 mg/kg PO QD,100%
same,Spleen weight reduction,NZBWF1/J mice; 5 mg/kg PO QD,54%
same,Summed histopathology scores reduction,NZBWF1/J mice; 5 mg/kg PO QD,81%
same,Plasma anti-dsDNA IgG levels,NZBWF1/J mice; 10 mg/kg PO QD,significantly reduced
same,Glomerulonephritis score reduction,NZBWF1/J mice; 10 mg/kg PO QD,100%
same,Urine protein levels,"NZBWF1/J mice; 10 mg/kg PO QD, p<0.05 at mouse age 42-43 wk",significantly reduced
same,Interstitial nephritis score reduction,NZBWF1/J mice; 10 mg/kg PO QD,67%
same,Perivascular inflammation score reduction,NZBWF1/J mice; 10 mg/kg PO QD,100%
same,Protein cast severity reduction,NZBWF1/J mice; 10 mg/kg PO QD,100%
same,Spleen weight reduction,NZBWF1/J mice; 10 mg/kg PO QD,55%
same,Summed histopathology scores reduction,NZBWF1/J mice; 10 mg/kg PO QD,91%
same,Body weight loss (percent change from baseline),"NZBWF1/J mice; 1, 5 or 10 mg/kg PO QD 20 wk, over time",did not differ significantly
same,Kidney weight,"NZBWF1/J mice; 1, 5 or 10 mg/kg PO QD",did not differ significantly
same,% of animals with proteinuria (urine protein levels >300 mg/dl),"NZBWF1/J mice; all doses (1, 5, or 10 mg/kg), animal age 43 weeks",significantly reduced
same,Sodium (Na),"NZBWF1/J mice; serum at termination, Compound 292 1 mg/kg",significantly increased
same,Amylase (AMY),"NZBWF1/J mice; serum at termination, Compound 292 5 mg/kg, Dex 2 mg/kg",significantly reduced
same,Magnesium (Mg),"NZBWF1/J mice; serum at termination, Compound 292 10 mg/kg, Dex 2 mg/kg",significantly increased
same,Aspartate aminotransferase (AST),"NZBWF1/J mice; serum at termination, Compound 292 (1, 5, 10 mg/kg)",significantly reduced
same,Albumin (ALB),NZBWF1/J mice; [3],significantly increased
same,Blood urea nitrogen (BUN),NZBWF1/J mice; [3],significantly reduced
same,Calcium (CA),NZBWF1/J mice; [3],significantly increased
same,Creatine kinase (CPK),NZBWF1/J mice; [3],significantly reduced
same,Globulin (GLOB),NZBWF1/J mice; [3],significantly reduced
same,Triglycerides (TRIG),NZBWF1/J mice; [3],significantly reduced
same,R848 induced IFN-α,R848 induced cytokines,did not detectably affect
same,R848 induced IL-1,R848 induced cytokines,slightly inhibited
same,R848 induced IL-6,R848 induced cytokines,did not detectably affect
same,R848 induced IL-8,R848 induced cytokines,did not detectably affect
same,R848 induced TNF-α,R848 induced cytokines,did not detectably affect
same,LPS induced IL-1 production,LPS induced cytokines,enhanced
same,LPS induced IL-6 production,LPS induced cytokines,enhanced
same,LPS induced IL-8 production,LPS induced cytokines,did not detectably affect
same,LPS induced TNF-α production,LPS induced cytokines,enhanced
same,"PI3K-δ inhibited at lower dose compared to PI3K-γ, PI3K-β or PI3K-α",PI3K-δ,at least 10 fold
same,EC50,[1],0.5 nM
same,EC50,B cell proliferation,< 100 nM
same,EC50,[2],78 nM
